Test results as given in patent US20210300924A1, “5-[6-[[3-(4,5,6,7-TETRAHYDROPYRAZOLO[4,3-C]PYRIDIN-1-YL)AZETIDIN-1-YL]METHYL]MORPHOLIN-4-YL]QUINOLINE-8-CARBONITRILE DERIVATIVES AND SIMILAR COMPOUNDS AS TLR7-9 ANTAGONISTS FOR TREATING SYSTEMIC LUPUS ERYTHEMATOSUS” (Hoffmann-La Roche Inc., priority 2018, published 2021).
Read-outs that look alike come from different tables or passages of the source.

Legend:
TLR9 [1] = target: T1, TLR9 (Homo sapiens, UniProt Q9NR96); design: host or cells: HEK cells; conditions: data disclosed in US20150105370; read-out: HEK/hTLR9 IC50; cited from earlier work
T1 sequence (Q9NR96 26-1032): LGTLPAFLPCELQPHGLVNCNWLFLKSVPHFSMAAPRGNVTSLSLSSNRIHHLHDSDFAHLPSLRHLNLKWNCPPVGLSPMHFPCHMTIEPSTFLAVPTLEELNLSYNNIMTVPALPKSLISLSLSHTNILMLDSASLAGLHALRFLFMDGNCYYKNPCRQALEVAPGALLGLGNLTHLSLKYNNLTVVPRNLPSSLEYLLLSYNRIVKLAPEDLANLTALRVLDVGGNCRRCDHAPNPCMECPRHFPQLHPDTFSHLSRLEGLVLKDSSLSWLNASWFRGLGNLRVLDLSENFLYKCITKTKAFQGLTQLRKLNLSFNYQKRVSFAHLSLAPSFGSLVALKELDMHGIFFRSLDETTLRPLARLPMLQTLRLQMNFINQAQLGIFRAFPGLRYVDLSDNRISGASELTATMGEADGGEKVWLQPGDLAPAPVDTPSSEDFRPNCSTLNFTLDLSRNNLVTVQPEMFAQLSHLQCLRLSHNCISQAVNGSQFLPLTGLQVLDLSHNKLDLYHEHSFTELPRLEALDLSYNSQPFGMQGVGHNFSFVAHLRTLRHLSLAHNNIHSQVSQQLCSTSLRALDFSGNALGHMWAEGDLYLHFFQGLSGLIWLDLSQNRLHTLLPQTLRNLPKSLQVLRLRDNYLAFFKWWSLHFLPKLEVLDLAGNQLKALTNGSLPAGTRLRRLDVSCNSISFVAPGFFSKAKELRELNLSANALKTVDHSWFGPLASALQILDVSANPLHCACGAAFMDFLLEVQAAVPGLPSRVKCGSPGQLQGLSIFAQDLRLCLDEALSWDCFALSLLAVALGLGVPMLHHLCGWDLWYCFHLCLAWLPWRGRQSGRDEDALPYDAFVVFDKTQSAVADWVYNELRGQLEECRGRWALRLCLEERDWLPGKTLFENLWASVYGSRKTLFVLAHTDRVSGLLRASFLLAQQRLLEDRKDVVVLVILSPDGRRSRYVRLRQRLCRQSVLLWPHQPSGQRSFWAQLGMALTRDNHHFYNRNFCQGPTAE

hERG channel = target: T2, hERG channel (Homo sapiens, UniProt Q12809); experiment: hERG channel inhibition assay (patch-clamp, CHOhERG cells); assay type: cell-based; conditions: for safety window (hERG IC20/TLR7/8/9 IC50) compared to the compounds of this invention: in words; for hERG IC20/TLR7 IC50 / hERG IC20/TLR9 IC50 / hERG IC20/TLR8 IC50: safety ratio, >30 suggests sufficient window
T2 construct: expressed in transfected cells; host or cells: CHO (Chinese hamster ovary), CHOhERG
Method: hERG Channel Inhibition Assay:
The hERG K^+ channels were cloned in humans and stably expressed in a CHO (Chinese hamster ovary) cell line. CHOhERG cells were used for patch-clamp (voltage-clamp, whole-cell) experiments. Cells were stimulated by a voltage pattern to activate hERG channels and conduct hERG currents (rapid delayed outward rectifier potassium current of the hERG channel). After the cells were stabilized for a few minutes, the amplitude and kinetics of IKhERG were recorded at a stimulation frequency of 0.1 Hz (6 bpm). Thereafter, the test compound was added to the preparation at increasing concentrations. For each concentration, an attempt was made to reach a steady-state effect, usually, this was achieved within 3-10 min at which time the next highest concentration was applied. The amplitude and kinetics of IKhERG are recorded in each concentration of the drug which were compared to the control values (taken as 100%). (references: Redfern W S, Carlsson L, Davis A S, Lynch W G, MacKenzie I, Palethorpe S, Siegl P K, Strang I, Sullivan A T, Wallis R, Camm A J, Hammond T G. 2003; Relationships between preclinical cardiac electrophysiology, clinical QT interval prolongation and torsade de pointes for a broad range of drugs: evidence for a provisional safety margin in drug development. Cardiovasc. Res. 58:32-45, Sanguinetti MC, Tristani-Firouzi M. 2006; hERG potassium channels and cardiac arrhythmia. Nature 440:463-469, Webster R, Leishman D, Walker D. 2002; Towards a drug concentration effect relationship for QT prolongation and torsades de pointes. Curr. Opin. Drug Discov. Devel. 5:116-26).

TLR9 [2] = target: T1, TLR9; experiment: Human PBMC cell-based assay; design: endogenous in cells; host or cells: human PBMC from healthy donor whole blood; conditions: CpG ODN 2216 stimulation, overnight, cytokine readout, read-out: hPBMC/TLR9 IC50
Source text: Human PBMC Cell-Based Assay
Unlike the HEK reporter cell lines, human peripheral blood mononuclear cell (PBMC) represents primary human immune cells in blood mainly consisting of lymphocytes, monocytes, and dendritic cells. These cells express TLR7, TLR8, or TLR9, and therefore are natural responders to respective ligand stimulation. Upon activation of these TLRs, PBMCs secrete similar cytokines and chemokines in vitro and in vivo, and therefore the in vitro potency of a TLR7/8/9 antagonist in human PBMC is readily translatable to its pharmacodynamics response in vivo.
Human peripheral blood mononuclear cells (PBMC) were isolated from freshly-drawn lithium-heparinized (Lithium Heparin Plus blood Collection tube, BD Vacutainer®) healthy donor whole blood by density gradient (Ficoll-Paque™ PLUS, GE Healthcare life Sciences). Briefly, […] was diluted with 25 mL PBS (without Ca^2+, Mg^2+) in a 50 mL conical tube with porous barrier (Leucosep tube, Greiner bio-one), where 15.5 mL Ficoll-Paque was under laid after spinning. Tubes were centrifuged for 20 minutes at 800×g (1946 rpm) with the brake in the off position, and PBMC were collected from the buffy coat. Cells were then washed twice in PBS, and red blood cells were lysed by suspension in 2 mL (Red Blood Cell Lysis Buffer, Alfa Aesar) for 5-10 minutes at room temperature. After a final wash in PBS, PBMC were resuspended at a final concentration of 2×10^6 cells/mL in RPMI-1640 media with GlutaMAX™ (Gibco) supplemented with 10% Fetal Bovine Serum (Sigma) and plated at 150 μL/well (3×10^5 cells/well) in tissue culture treated round bottom 96-well plates (Corning Incorporated). Antagonist compounds (compounds of this invention) solubilized and serial diluted in 100% DMSO were added in duplicate to cells to yield a final concentration of 1% DMSO (v/v). PBMC were incubated with antagonist compounds for 30 minutes at 37° C., 5% CO2 before adding various TLR agonist reagents in 48 μL complete media per well as follows (final concentrations indicated): CpG ODN 2216 (InvivoGen) at […] for TLR9, ORN 06/LyoVec (InvivoGen) at 1 μg/mL for TLR8 and R848 (InvivoGen) at 1 μg/mL for TLR7 and TLR8. PBMC were incubated overnight at 37° C. with 5% CO2. Cell culture supernatants were collected, and levels of various human cytokines were assessed by Luminex assay (ProcartaPlex™ Multiplex Immunoassay, Invitrogen) or ELISA procedure according to the manufacturer's recommended protocol (eBioscience, ThermoFisher Scientific). Viability of the cells was also checked with Cell Viability Assay (CellTiter Glo® Luminescent Cell Viability Assay, Promega).

T2 sequence (Q12809 whole entry): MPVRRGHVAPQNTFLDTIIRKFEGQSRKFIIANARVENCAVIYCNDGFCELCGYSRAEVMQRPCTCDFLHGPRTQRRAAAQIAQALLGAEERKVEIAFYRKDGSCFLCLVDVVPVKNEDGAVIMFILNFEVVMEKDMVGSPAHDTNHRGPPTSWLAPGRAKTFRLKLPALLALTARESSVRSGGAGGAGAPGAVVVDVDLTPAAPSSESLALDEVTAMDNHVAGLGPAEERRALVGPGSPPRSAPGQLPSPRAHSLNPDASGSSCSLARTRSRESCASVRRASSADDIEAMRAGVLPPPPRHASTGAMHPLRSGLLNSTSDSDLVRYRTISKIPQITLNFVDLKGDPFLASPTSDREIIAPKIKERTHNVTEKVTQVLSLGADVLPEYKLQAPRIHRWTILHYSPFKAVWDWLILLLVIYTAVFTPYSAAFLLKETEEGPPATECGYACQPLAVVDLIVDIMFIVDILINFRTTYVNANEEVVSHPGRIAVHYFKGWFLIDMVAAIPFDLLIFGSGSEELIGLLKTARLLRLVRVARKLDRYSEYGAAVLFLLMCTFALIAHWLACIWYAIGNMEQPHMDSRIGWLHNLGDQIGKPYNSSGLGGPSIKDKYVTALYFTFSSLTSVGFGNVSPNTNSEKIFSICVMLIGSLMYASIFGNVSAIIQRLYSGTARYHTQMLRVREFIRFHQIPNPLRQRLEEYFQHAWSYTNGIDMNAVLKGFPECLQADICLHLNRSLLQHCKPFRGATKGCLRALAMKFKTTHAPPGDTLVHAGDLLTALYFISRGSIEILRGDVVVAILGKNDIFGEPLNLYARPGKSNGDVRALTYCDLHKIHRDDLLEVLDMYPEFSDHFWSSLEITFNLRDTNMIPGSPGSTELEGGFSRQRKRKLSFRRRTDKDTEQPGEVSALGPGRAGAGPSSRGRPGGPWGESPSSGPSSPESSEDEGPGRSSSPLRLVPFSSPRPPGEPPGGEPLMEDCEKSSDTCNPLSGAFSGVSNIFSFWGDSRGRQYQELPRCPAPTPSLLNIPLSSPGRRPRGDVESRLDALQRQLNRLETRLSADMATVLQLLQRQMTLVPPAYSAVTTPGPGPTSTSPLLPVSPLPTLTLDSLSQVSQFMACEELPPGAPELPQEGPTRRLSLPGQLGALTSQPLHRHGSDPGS

Row | SMILES | IC50 (TLR9 [1]) | safety window (hERG IC20/TLR7/8/9 IC50) compared to the compounds of this invention (hERG channel) | hERG IC20/TLR7 IC50 (hERG channel) | hERG IC20/TLR9 IC50 (hERG channel) | IC50 (TLR9 [2]) | hERG IC20/TLR8 IC50 (hERG channel)
1 | Cc1nn(C)cc1S(=O)(=O)NC1CCN(C[C@H]2CN(c3ccc(C#N)c4ncccc34)C[C@@H](C)O2)CC1 [ER-894160] | > 10000 nM | – | – | – | – | –
2 | C[C@@H]1CN(c2ccc(C#N)c3ncccc23)C[C@H](CN2CC[C@@H](NC(=O)c3ccccc3)C2)O1 [ER-894544] | > 6200 nM | – | – | – | – | –
3 | C[C@@H]1CN(c2ccc(C#N)c3ncccc23)C[C@H](CN2CCN(c3ccncc3)CC2)O1 [ER-888286, reference compound] | > 2000 nM | much narrower safety window | 0.3 | 0.2 | 1630 nM | –
4 | C[C@@H]1CN(c2ccc(C#N)c3ncccc23)C[C@H](CN2CCN(c3ccc(Cl)cc3)CC2)O1 [Example R2, 5-[(2S,6R)-2-[[4-(4-chlorophenyl)piperazin-1-yl]methyl]-6-methyl-morpholin-4-yl]quinoline-8-carbonitrile, reference compound] | – | much narrower safety window | 1.3 | 0.04 | – | 0.8
5 | C[C@@H]1CN(c2ccc(C#N)c3ncccc23)C[C@H](CN2CCN(c3ccccn3)CC2)O1 [ER-888285, reference compound] | > 2000 nM | much narrower safety window | 8.4 | 0.5 | – | –
6 | C[C@@H]1CN(c2ccc(C#N)c3ncccc23)C[C@H](CN2CC(NS(=O)(=O)c3ccc(F)cc3)C2)O1 [ER-894155] | > 10000 nM | – | – | – | – | –
7 | C[C@@H]1CN(c2ccc(C#N)c3ncccc23)C[C@H](CN2CCN(c3ccccc3)CC2)O1 [ER-887258, reference compound] | > 2000 nM | much narrower safety window | 8.1 | 0.3 | – | –
8 | COc1ccc(N2CCN(C[C@H]3CN(c4ccc(C#N)c5ncccc45)C[C@@H](C)O3)CC2)cc1 [Example R1, 5-[(2S,6R)-2-[[4-(4-methoxyphenyl)piperazin-1-yl]methyl]-6-methyl-morpholin-4-yl]quinoline-8-carbonitrile, reference compound] | – | much narrower safety window | 9.3 | 0.1 | – | 6.2
